Reference: patent US8791269B2, “Complex of amorphous tomoxiprole and cyclodextrin with fast dissolution rate and process for the preparation thereof” (Fondazione Istituto Insubrico di Ricerca per la Vita, priority 2011, dated 2014)

Legend:
[1] = Dissolution rate in buffer solution HCl-KCl pH 1.5; assay type: physicochemical; conditions: for Substance dissolved (concentration of tomoxiprole): buffer HCl-KCl pH 1.5
Description: The dissolution rate of the complex tomoxiprole-2-hydroxypropyl-beta-cyclodextrin obtained in Example 1 is determined by the following method.
In a flask provided with magnetic mixer 600 mg of tomoxiprole-2-hydroxypropyl-beta-cyclodextrin complex (corresponding to 100 mg of tomoxiprole) are added to 10 ml of a buffer solution HCl—KCl pH 1.5. Samples of the suspension are collected at intervals of time, clarified by centrifugation and the tomoxiprole concentration in the clear supernatant is determined by UV absorption at 328 nm.
The method was the same of that described above, with the exception that 100 mg of tomoxiprole were added instead of 600 mg of complex tomoxiprole/HPBCD

in vivo = conditions: rat, po, 5 mg/kg
Description: To assess whether the faster dissolution rate observed for the complex actually corresponds to a faster in vivo absorption, the pharmacokinetic behaviour of tomoxiprole (TMX) and tomoxiprole-2-hydroxypropyl-beta-cyclodextrin complex (TMX/HPBCD) in rats have been compared.
Experimental design: Two groups of four rats each have been used. To the rats of each group was orally given either a dose of 5 mg/Kg of tomoxiprole or a dose of complex tomoxiprole-2-hydroxypropyl-beta-ciclodestrin corresponding to 5 mg/Kg of active substance. […] Samples of blood were collected at 0.3, 0.6, 1, 1.5, 2 and 6 hours, and plasma separated by centrifugation. Sample processing and HPLC analyses were performed as previously described (A. Bernareggi et al. J. liquid chromatography 1984, 7, 2093-2101). The pharmacokinetic parameters calculated from the plasma levels of tomoxiprole observed with the two formulations are reported in the following Table 2

[2] = Surface wettability (water contact angle); assay type: physicochemical; conditions: at any pH
[3] = orally administered; cited from earlier work
[4] = active doses; cited from earlier work

- Time at which the saturation concentration is reached ([1]; buffer pH 1.5): over 8 min
- Substance dissolved (concentration of tomoxiprole) ([1]; time 0.5 min): 1 mg/mL
- Substance dissolved (concentration of tomoxiprole) ([1]; time 2 min): 3 mg/mL
- Substance dissolved (concentration of tomoxiprole) ([1]; time 4 min): 4 mg/mL
- Substance dissolved (concentration of tomoxiprole) ([1]; time 8 min): 4.9 mg/mL
- Substance dissolved (concentration of tomoxiprole) ([1]; time 12 min): 5.2 mg/mL
- AUC (in vivo): 46 ng·h/mL
- AUC(0-t) (in vivo): 1170 ng·h/mL
- Cmax (in vivo): 220 ng/mL
- Tmax (in vivo): 1.5 h
- Water contact angle [2]: 81 °
Structure (SMILES): COc1ccc(-c2nc3c4ccccc4ccc3n2C(C)C)cc1 [Tomoxiprole crystals, 2-(4-methoxyphenyl)-3-(1-methylethyl)-3H-naphth[1,2-d] imidazole]
- Time of maximum concentration in the blood after administration [3]: over one hour
- Ulcerogenic activity [4]: devoid of ulcerogenic activity
